Measured values from PubChem BioAssay AID200 (DTP/NCI, 2004).
Where “and” joins values, the source holds several entries; their conditions need not be identical. Equal values may be shown once. Inconclusive results and toxic doses are left out.

System: B6C3F1 mice, B16 melanoma ip, median survival T/C
Assay: NCI In Vivo Anticancer Drug Screen. Data for tumor model B16 Melanoma (intraperitoneal) in B6C3F1 mice
Settings: endpoint: median survival time, higher = longer survival
In short: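 Antitumor effect was judged in mice with transplanted tumors by dividing the treated group's survival measure by that of vehicle controls.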

[1] = dose: 12.5 mg/kg/injection, schedule: Q01DX009 (ip), vehicle: saline
[2] = dose: 25.0 mg/kg/injection, schedule: Q01DX009 (ip), vehicle: saline

Nc1nc(N)c2c(ccc3c2ccn3Cc2cccc([N+](=O)[O-])c2)n1
T/C (dose: 0.19 mg/kg/injection, schedule: Q01DX009 (ip), vehicle: saline with Tween-80): 107 % of control
T/C (dose: 0.2 mg/kg/injection, schedule: Q01DX009 (ip), vehicle: saline with Tween-80): 102 % of control
T/C (dose: 0.38 mg/kg/injection, schedule: Q01DX009 (ip), vehicle: saline with Tween-80): 98 % of control
T/C (dose: 0.4 mg/kg/injection, schedule: Q01DX009 (ip), vehicle: saline with Tween-80): 101 % of control
T/C (dose: 0.75 mg/kg/injection, schedule: Q01DX009 (ip), vehicle: saline with Tween-80): 116 % of control
T/C (dose: 0.78 mg/kg/injection, schedule: Q01DX009 (ip), vehicle: saline with Tween-80): 103 % of control
T/C (dose: 1.5 mg/kg/injection, schedule: Q01DX009 (ip), vehicle: saline with Tween-80): 93 % of control and 100 % of control
T/C (dose: 1.56 mg/kg/injection, schedule: Q01DX009 (ip), vehicle: saline with Tween-80): 99 % of control
T/C (dose: 3.0 mg/kg/injection, schedule: Q01DX009 (ip), vehicle: saline with Tween-80): 112 % of control and 103 % of control
T/C (dose: 6.0 mg/kg/injection, schedule: Q01DX009 (ip), vehicle: saline with Tween-80): 108 % of control and 116 % of control

CC(C)CC(NC(=O)CN)C(=O)O (stereo not drawn)
T/C (dose: 100.0 mg/kg/injection, schedule: Q01DX009 (ip), vehicle: saline with Tween-80): 101 % of control
T/C (dose: 200.0 mg/kg/injection, schedule: Q01DX009 (ip), vehicle: saline with Tween-80): 95 % of control
T/C (dose: 400.0 mg/kg/injection, schedule: Q01DX009 (ip), vehicle: saline with Tween-80): 97 % of control

CNC(=O)ON(C(C)=O)C(=O)NC
T/C [1]: 102 % of control
T/C [2]: 107 % of control
T/C (dose: 50.0 mg/kg/injection, schedule: Q01DX009 (ip), vehicle: saline): 102 % of control

[Cl][Pt+2][Cl].[NH-]c1cc(Cl)c(Cl)c(Cl)c1[NH-]
T/C (dose: 40.0 mg/kg/injection, schedule: Q01DX009 (ip), vehicle: distilled water + Tween-80): 109 % of control
T/C (dose: 80.0 mg/kg/injection, schedule: Q01DX009 (ip), vehicle: distilled water + Tween-80): 102 % of control

O=NN(CCF)C(=O)NC1C(O)CCCC1O (stereo not drawn)
T/C (dose: 7.5 mg/kg/injection, schedule: Q01DX001 (ip), vehicle: saline): 198 % of control
T/C (dose: 15.0 mg/kg/injection, schedule: Q01DX001 (ip), vehicle: saline): 222 % of control
T/C (dose: 30.0 mg/kg/injection, schedule: Q01DX001 (ip), vehicle: saline): 350 % of control
T/C (dose: 60.0 mg/kg/injection, schedule: Q01DX001 (ip), vehicle: saline): 350 % of control

COc1cc(NCCCCCCCNC(C)C)c2nccc(C)c2c1
T/C (dose: 3.12 mg/kg/injection, schedule: Q01DX009 (ip), vehicle: saline): 103 % of control
T/C (dose: 6.25 mg/kg/injection, schedule: Q01DX009 (ip), vehicle: saline): 96 % of control
T/C [1]: 103 % of control
T/C [2]: 103 % of control

Cc1ccc(S(=O)(=O)OCCN(CCOS(=O)(=O)c2ccc(C)cc2)c2ccc(F)cc2)cc1
T/C (dose: 3.12 mg/kg/injection, schedule: Q01DX009 (ip), vehicle: saline + alcohol): 109 % of control
T/C (dose: 6.25 mg/kg/injection, schedule: Q01DX009 (ip), vehicle: saline + alcohol): 109 % of control
T/C (dose: 12.5 mg/kg/injection, schedule: Q01DX009 (ip), vehicle: saline + alcohol): 108 % of control
T/C (dose: 25.0 mg/kg/injection, schedule: Q01DX009 (ip), vehicle: saline + alcohol): 111 % of control
T/C (dose: 50.0 mg/kg/injection, schedule: Q01DX009 (ip), vehicle: saline + alcohol): 108 % of control

COc1cc(C2c3cc4c(cc3C(OC3CCCCO3)C3COC(=O)C23)OCO4)cc(OC)c1OC (stereo not drawn)
T/C (dose: 1.56 mg/kg/injection, schedule: Q01DX009 (ip), vehicle: Klucel (hydroxypropylcellulose) (HPC)): 93 % of control
T/C (dose: 3.12 mg/kg/injection, schedule: Q01DX009 (ip), vehicle: Klucel (hydroxypropylcellulose) (HPC)): 98 % of control

C/C=C/C=C/c1cc2cc3c(c(O)c2c(=O)[nH]1)C1(CC3)C(O)=c2c(=O)c3c(=O)cc(OC)c(=O)c=3c(=O)c2=C1O (stereo not drawn)
T/C (dose: 0.75 mg/kg/injection, schedule: Q01DX009 (ip), vehicle: Klucel (hydroxypropylcellulose) (HPC)): 114 % of control and 117 % of control
T/C (dose: 1.5 mg/kg/injection, schedule: Q01DX009 (ip), vehicle: Klucel (hydroxypropylcellulose) (HPC)): 114 % of control and 107 % of control
T/C (dose: 3.0 mg/kg/injection, schedule: Q01DX009 (ip), vehicle: Klucel (hydroxypropylcellulose) (HPC)): 116 % of control
T/C (dose: 6.0 mg/kg/injection, schedule: Q01DX009 (ip), vehicle: Klucel (hydroxypropylcellulose) (HPC)): 115 % of control
T/C (dose: 12.0 mg/kg/injection, schedule: Q01DX009 (ip), vehicle: Klucel (hydroxypropylcellulose) (HPC)): 115 % of control

[Na+]
T/C (dose: 25.0 mg/kg/injection, schedule: Q01DX009 (ip), vehicle: water): 111 % of control
T/C (dose: 50.0 mg/kg/injection, schedule: Q01DX009 (ip), vehicle: water): 91 % of control
T/C (dose: 100.0 mg/kg/injection, schedule: Q01DX009 (ip), vehicle: water): 92 % of control
T/C (dose: 200.0 mg/kg/injection, schedule: Q01DX009 (ip), vehicle: water): 106 % of control
T/C (dose: 400.0 mg/kg/injection, schedule: Q01DX009 (ip), vehicle: water): 86 % of control
